Assays:
Botrytis cinerea = Botrytis cinerea rot on wounded apple and banana fruit; format: in vivo; set-up: key: Different results are indicated by different letters; Different results are indicated by different letters; Different results are indicated by different letters; Different results are indicated by different letters; Different results are indicated by different letters
From the text: Tested fruit: apple (cv Elstar) and a banana (cv Cavendish) from organic origin/SKAL certified. SKAL is a semi-governmental Dutch organization that controls organic production in the Netherlands.
Used pathogen: Botrytis cinerea spore-suspension containing ˜3×10^5 propagules (spores)/ml.
Application: Fruit peel was damaged with a cork borer, depth ˜0.5 cm into the fruit, 2 wounds per apple fruit; 2 wounds per banana fruit. 30 microliters of a freshly prepared spore suspension of B. cinerea (estimated 3×10^5 spores/ml) were applied by pipette onto each wound. Subsequently, the spore-suspension was allowed to air-dry for 3 hours. 50 microliters of fungicide suspensions 1-6 were applied by pipette to each wound.
All fruits were kept at room temperature (20° C.).
Replicates: All treatments (1-6) were performed on 6 individual apples and 6 individual bananas with 2 wounds each resulting in 12 wounds per fruit per treatment. The recorded observed antifungal activity is the reduction (in percentages) of the average surface of the rot as observed in the 12 wounds compared to the rot surface of the untreated control.
Observation: All wounds were inspected daily for visual symptoms of fruit rot and/or fungus growth. Rot surface was determined after 5 and 7 days (see Tables 1, 2 and 3). The recorded observed antifungal activity is the surface of the rot.

Penicillium discolor = Penicillium discolor rot on wounded apples cv Gala; format: in vivo; conditions: rot surface area vs untreated control, phosphite 16 mM, natamycin 100 ppm
Description: Tested fruit: apples cv Gala from organic origin/SKAL certified. SKAL is a semi-governmental Dutch organization that controls organic production in the Netherlands. Wounds of the apples were checked at day 3. All phosphite concentrations were tested at a concentration of 16 mM of phosphonate. Natamycin (95%, Freda) solo and in combination was tested at a concentration of 100 ppm. […] Used pathogen: Penicillium discolor spore-suspension containing 4*10E6 spores/ml. Application: The fruit peel of the apple was damaged with a cork borer, ø4 mm and depth ˜0.5 cm into the fruit, with 2 wounds per apple. 40 microliter of a freshly prepared spore suspension of P. discolor was applied by pipette onto each wound. Subsequently, the spore-suspension was allowed to air-dry for 4 hours. Then, 50 microliter of a treatment as presented in the list above was applied by pipette to each wound. All fruits were kept at room temperature (20° C.). Wounds of the apples were checked after 4, 7 and 9 days of incubation. The efficacy is calculated by measuring the surface area (square mm) of the rot on the apples, and compared to the untreated control (see Table 4). Replicates: All treatments for the apple experiment were performed on six individual apples with two wounds each resulting in 12 wounds per treatment.

For C#CCOc1ccc(CCNC(=O)C(OCC#C)c2ccc(Cl)cc2)cc1OC (racemic) [mandipropamid, (RS)-2-(4-chloorfenyl)-N-[3-methoxy-4-(prop-2-ynyloxy)fenethyl]-2-(prop-2-ynyloxy)acetamide], the “Effect on fungicidal attack of Botrytis on apple and banana” value (“Effect on fungicidal attack of Botrytis” below) (Botrytis cinerea; Table 1, phosphonate Control, mandipropamid 1/16 label) was “e”, the “Effect on fungicidal attack of Botrytis” value (Botrytis cinerea; Table 1, phosphonate Control, mandipropamid ¼ label) was “e” and the “Effect on fungicidal attack of Botrytis” value (Botrytis cinerea; Table 1, phosphonate Control, mandipropamid ½ label) was “d”. For the same compound, the “Effect on fungicidal attack of Botrytis” value (Botrytis cinerea; Table 1, phosphonate Control, mandipropamid ⅛ label) was “e”, the “Effect on fungicidal attack of Botrytis” value (Botrytis cinerea; Table 3, Na2HPO3 part, phosphonate Control, mandipropamid ¼ label) was “d” and the “Effect on fungicidal attack of Botrytis” value (Botrytis cinerea; Table 3, Na2HPO3 part, phosphonate Control, mandipropamid ⅛ label) was “e”. The “Effect on fungicidal attack of Botrytis” value (Botrytis cinerea; Table 3, NaH2PO3 part, phosphonate Control, mandipropamid ¼ label) was “e” and the “Effect on fungicidal attack of Botrytis” value (Botrytis cinerea; Table 3, NaH2PO3 part, phosphonate Control, mandipropamid ½ label) was “d”.

For COCC(=O)N(c1c(C)cccc1C)C(C)C(=O)OC (racemic) [mefenoxam, methyl N-(methoxyacetyl)-N-(2,6-xylyl)-DL-alaninate], the “Effect on fungicidal attack of Botrytis” value (Botrytis cinerea; Table 2, phosphonate Control, mefenoxam ¼ label) was “e”.

In the case of O=[PH]([O-])O.[Na+] [NaH2PO3, monosodium dihydrogen phosphite], the “Effect on fungicidal attack of Botrytis” value (Botrytis cinerea; Table 3, NaH2PO3 part, Concentration 1, mandipropamid control) is reported as “d”, the “Effect on fungicidal attack of Botrytis” value (Botrytis cinerea; Table 3, NaH2PO3 part, Concentration 2, mandipropamid control) is reported as “c” and the “Effect on fungicidal attack of Botrytis” value (Botrytis cinerea; Table 3, NaH2PO3 part, Concentration 3, mandipropamid control) is reported as “b”.

For C[C@@H]1C/C=C/C=C/C=C/C=C/[C@H](OC2O[C@H](C)[C@@H](O)[C@H](N)[C@@H]2O)C[C@@H]2O[C@](O)(C[C@@H](O)C[C@H]3O[C@@H]3/C=C/C(=O)O1)C[C@H](O)[C@H]2C(=O)O (stereo partly drawn) [Natamycin, (1R,3S,5R,7R, 8E,12R,14E,16E,18E,20E,22R,24S,25R,26S)-22-[(3-amino-3,6-dideoxy-D-mannopyranosyl)oxy]-1,3,26-trihydroxy-12-methyl-10-oxo-6,11,28-trioxatricyclo[22.3.1.05,7]octacosa-8,14,16,18,20-pentaene-25-carboxylic acid], the “Efficacy (%)” value (Penicillium discolor; Day 4) was 23%, the “Efficacy (%)” value (Penicillium discolor; Day 7) was 10% and the “Efficacy (%)” value (Penicillium discolor; Day 9) was 9%.

— patent publication US20190254285A1, “SODIUM PHOSPHITE COMBINATIONS” (priority 2016, published 2019)
